Laboratory results from patent US20140336267A1, “UTILIZATION OF THE FUNCTION OF RARE SUGAR AS PROMOTER FOR THE MIGRATION OF GLUCOKINASE FROM NUCLEUS TO CYTOPLASM” (NATIONAL UNIVERSITY CORPORATION KAGAWA UNIVERSITY, priority 2006, published 2014).

What was measured:
glucokinase [1] = target: T1, glucokinase (Rattus norvegicus, UniProt P17712); experiment: Intracellular transfer of hepatic glucokinase with ketose (fluorescence antibody method, rat hepatocyte primary culture); assay type: cell-based
T1 construct: stained by a fluorescence antibody method using an anti-glucokinase antibody; endogenous in cells; host or cells: primary culture of hepatocytes from male Wistar rats
T1 sequence (P17712 1-465 isoform P17712-3): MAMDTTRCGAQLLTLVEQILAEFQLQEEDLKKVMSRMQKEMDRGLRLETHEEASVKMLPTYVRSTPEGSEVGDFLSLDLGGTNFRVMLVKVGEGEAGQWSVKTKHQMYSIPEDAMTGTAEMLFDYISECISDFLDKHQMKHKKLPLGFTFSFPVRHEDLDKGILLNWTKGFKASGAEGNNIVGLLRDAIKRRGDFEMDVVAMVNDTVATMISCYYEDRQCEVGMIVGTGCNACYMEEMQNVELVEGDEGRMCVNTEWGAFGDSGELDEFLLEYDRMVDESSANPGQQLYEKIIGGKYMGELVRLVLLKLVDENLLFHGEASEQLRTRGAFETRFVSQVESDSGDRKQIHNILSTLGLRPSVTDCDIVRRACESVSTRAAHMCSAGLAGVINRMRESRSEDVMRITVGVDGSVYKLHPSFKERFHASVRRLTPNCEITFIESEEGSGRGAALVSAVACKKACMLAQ
Experimental: Wistar rats (male, aged 5 to 8 weeks) were used. […] The hepatocytes were fixed with 4% para-formaldehyde, and stained by a fluorescence antibody method using an anti-glucokinase antibody. A fluorescent image obtained with a co-focus laser microscope was analyzed with the NIH Image to calculate the fluorescence intensity in the nucleus and the cytoplasm, which were defined as the glucokinase level in the nucleus and the cytoplasm. […] By the same method as described above, the glucokinase level in the intracellular nucleus and the cytoplasm was determined.

glucokinase [2] = target: T1, glucokinase; experiment: Hepatic glucokinase transfer from nucleus to cytoplasm in Goto-Kakizaki rats (type 2 diabetes model); assay type: in vivo; conditions: for cytoplasmic glucokinase level (fluorescence intensity analysis): central vein and portal vein regions
Experimental: (§1) The action of suppressing blood glucose increase with D-fructose at a low concentration was examined. To Goto-Kakizaki rats as a model animal of type 2 diabetes mellitus, D-glucose to 2 g/[…] or D-glucose to 2 g/l kg body weight+D-fructose to 0.2 g/1 kg body weight was administered orally, to examine the modification of glucokinase transfer from the nucleus to the cytoplasm in hepatocytes and the change of the blood glucose levels in the portal vein and the tail vein.
(§2) 2 g/kg D-glucose is orally given to male Goto-Kakizaki rats starved overnight. Simultaneously, 0.2 g/kg D-psicose was orally given. Thirty minutes later and 60 minutes later, the rats were perfused and fixed with 4% para-formaldehyde under anesthesia, from which liver was immediately resected to prepare frozen sections. The distribution of hepatic glucokinase in nucleus and cytoplasm was analyzed with the fluorescence antibody method using an anti-glucokinase antibody. Simultaneously, blood was drawn out from the tail vein and the portal vein, to assay blood glucose level and insulin concentration. Herein, liver is divided in the portal vein region and the central vein region of liver. It has been known that the activity of glucokinase in the central vein region is higher by 1.3 fold to 1.5 fold than the activity thereof in the portal vein region. Therefore, the glucokinase distributions in the nucleus and the cytoplasm in the central vein region and the portal vein region were analyzed.

hepatocytes [3] = experiment: Lactic acid generation in hepatocytes; assay type: cell-based, rat
Experimental: […] As a control, DMSO was added.
(§3) Cultured hepatocytes were incubated in an MEM culture medium containing 5 mM or 25 mM D-glucose with an action of promoting glucokinase transfer from nucleus to cytoplasm. Glucokinase transfer from nucleus to cytoplasm, glycogen synthesis and lactic acid generation were increased. Via glucose, glucokinase transfer from nucleus to cytoplasm occurs, which raises cytoplasmic glucokinase activity to possibly promote the sugar metabolism in liver. […] (FIGS. 4, 6, 7 and 8)

glucokinase [4] = target: T1, glucokinase; experiment: Glucokinase distribution in primary hepatocytes with D-glucose and D-fructose (fluorescence antibody method); assay type: cell-based
Experimental: In the presence of 5 mM D-glucose, glucokinase mainly existed in the cell nucleus.
as §3

glucokinase [5] = target: T1, glucokinase; experiment: Hepatic glucokinase transfer from nucleus to cytoplasm after oral sugar alone, Wistar rats (Example 2); assay type: in vivo; conditions: Wistar rats starved overnight; 2 g/kg oral; 30 minutes later
Experimental: Thirty minutes later, the rats were subjected to perfusion and fixing with 4% para-formaldehyde under anesthesia, from which liver was immediately resected to prepare frozen sections. The distribution of glucokinase in nucleus and cytoplasm was analyzed with the fluorescence antibody method using an anti-glucokinase antibody. Simultaneously, blood was drawn out from the tail vein and the portal vein, to assay blood glucose levels.

glucokinase [6] = target: T1, glucokinase; experiment: Hepatic glucokinase transfer from nucleus to cytoplasm after oral sugar given with D-glucose, Wistar rats (Example 3); assay type: in vivo; conditions: 30 minutes later
Experimental: Male Wistar rats starved overnight were given 2 g/kg D-glucose orally. Simultaneously, 0.2 g/kg D-psicose, D-fructose or a mixture of D-psicose and D-fructose at 1:3 were given orally. Thirty minutes later, the rats were perfused and fixed with 4% para-formaldehyde under anesthesia, from which liver was immediately resected to prepare frozen sections. The distribution of glucokinase in the nucleus and the cytoplasm was analyzed with the fluorescence antibody method using an anti-glucokinase antibody. Simultaneously, blood was drawn out from the tail vein and the portal vein, to assay blood glucose levels.

Goto-Kakizaki rats [7] = experiment: Blood glucose levels in tail vein and portal vein after sugar loading, Goto-Kakizaki rats; assay type: in vivo, rat
Experimental: as §1, §2

[8] = system: primary culture of rat hepatocytes; experiment: Glucose phosphorylation rate in cultured hepatocytes; assay type: cell-based
Experimental: Subsequently, the primary culture was incubated at various D-fructose concentrations in the presence of 25 mM D-glucose. […] The results agreed with the results reported so far.

hepatocytes [9] = experiment: Glycogen synthesis in cultured hepatocytes; assay type: cell-based, rat; conditions: MEM culture medium containing 5 mM or 25 mM D-glucose
Experimental: as §3

Goto-Kakizaki rats [10] = experiment: Insulin concentrations in tail vein and portal vein under sugar loading, Goto-Kakizaki rats; assay type: in vivo, rat; conditions: 0.2 g/kg with 2 g/kg D-glucose oral, 30 minutes and 60 minutes, vs D-glucose alone
Experimental: as §2

[11] = ketose added, MEM culture medium with 5 mM or 15 mM D-glucose
[12] = each D-ketose added at 0.5 mM, MEM with 15 mM glucose, DMSO control
[13] = Wistar rats, 0.2 g/kg oral simultaneously with 2 g/kg D-glucose
[14] = 2 g/kg D-glucose oral alone, 30 and 60 minutes, vs starved
[15] = MEM culture medium containing 5 mM or 25 mM D-glucose
[16] = 0.2 g/kg with 2 g/kg D-glucose oral, compared with D-glucose alone, portal and central vein regions
[17] = 0.2 g/kg with 2 g/kg D-glucose oral, 30 minutes and 60 minutes, vs D-glucose alone

O=C(CO)[C@@H](O)[C@H](O)[C@H](O)CO [D-fructose]
glucokinase transfer from nucleus to cytoplasm (glucokinase [1]; ketose added at 1 mM or more, 5 mM or 15 mM D-glucose): glucokinase transfer from nucleus to cytoplasm was gradually reduced | glucokinase transfer from nucleus to cytoplasm (glucokinase [1]; [11]): glucokinase transferred from nucleus to cytoplasm | glucokinase transfer from the nucleus to the cytoplasm in hepatocytes (glucokinase [2]; D-glucose 2 g/kg + D-fructose 0.2 g/kg oral, compared with D-glucose alone): significantly increased | lactic acid generation (hepatocytes [3]; [12]): lactic acid generation was increased | glucokinase transfer from the nucleus to the cytoplasm (glucokinase [4]; 0.5 mM D-fructose present vs absent, 5 mM or 25 mM D-glucose, 37° C. 30 minutes): the glucokinase transfer from the nucleus to the cytoplasm increased | glucokinase transfer from the nucleus to the cytoplasm in hepatocytes (glucokinase [5]): a higher level of the transfer was observed than with D-psicose | glucokinase transfer from the nucleus to the cytoplasm in hepatocytes (glucokinase [6]; [13]): glucokinase was mostly transferred to the cytoplasm | blood glucose level in the portal vein (Goto-Kakizaki rats [7]; additional supplement of D-fructose compared with D-glucose alone): suppressed significantly | blood glucose level in the portal vein (Goto-Kakizaki rats [7]; effect of D-fructose loading added to D-glucose): No difference was observed | glucose phosphorylation ([8]; 0.5 mM D-fructose present vs absent, various glucose concentrations): enhanced glucose phosphorylation in the hepatocytes | glucose phosphorylation ([8]; above 0.5 mM D-fructose, 25 mM D-glucose): glucose phosphorylation was reduced | glucose phosphorylation ([8]; up to 0.5 mM D-fructose, 25 mM D-glucose): glucose phosphorylation was enhanced as the D-fructose concentration was raised

O=C[C@H](O)[C@@H](O)[C@H](O)[C@H](O)CO [D-glucose]
glucokinase fluorescence in the cytoplasm (liver) (glucokinase [2]; [14]): fluorescence in the cytoplasm was inversely increased | glucokinase fluorescence in the nucleus (liver) (glucokinase [2]; [14]): Fluorescence in the nucleus was reduced | glucokinase transfer from the nucleus to the cytoplasm in hepatocytes (glucokinase [2]; oral D-glucose alone): glucokinase transferred from the nucleus to the cytoplasm | cytoplasmic glucokinase level (fluorescence intensity analysis) (glucokinase [2]; oral D-glucose vs 24-hour fasting): significantly increased | lactic acid generation (hepatocytes [3]; [15]): increased | cytoplasmic glucokinase (glucokinase [4]; 25 mM D-glucose, 37° C. for 30 minutes, vs 5 mM D-glucose): the cytoplasmic glucokinase was increased | glucokinase transfer from nucleus to cytoplasm (glucokinase [4]; [15]): increased | glucokinase transfer from the nucleus to the cytoplasm in hepatocytes (glucokinase [6]; Wistar rats starved overnight, 2 g/kg D-glucose oral alone): glucokinase transfer from the nucleus to the cytoplasm occurred slightly | glycogen synthesis (hepatocytes [9]): increased

O=C(CO)[C@H](O)[C@H](O)[C@H](O)CO [D-psicose]
glucokinase transfer from nucleus to cytoplasm (glucokinase [1]; even at a high ketose concentration): exerted an action to promote glucokinase transfer from nucleus to cytoplasm | glucokinase transfer from nucleus to cytoplasm (glucokinase [1]; [11]): glucokinase transferred from nucleus to cytoplasm | cytoplasmic glucokinase fluorescence (liver) (glucokinase [2]; [16]): increased the cytoplasmic fluorescence | nuclear glucokinase fluorescence (liver) (glucokinase [2]; [16]): significantly reduced the nuclear fluorescence | cytoplasmic glucokinase level (fluorescence intensity analysis) (glucokinase [2]; simultaneous administration with D-glucose vs D-glucose alone): further increased the cytoplasmic glucokinase level | lactic acid generation (hepatocytes [3]; [12]): lactic acid generation was increased | glucokinase transfer from the nucleus to the cytoplasm in hepatocytes (glucokinase [5]): glucokinase transfer from the nucleus to the cytoplasm could be observed | glucokinase transfer from the nucleus to the cytoplasm in hepatocytes (glucokinase [6]; [13]): glucokinase was transferred to the cytoplasm apparently but more weakly than with D-fructose | insulin concentration in the portal vein (Goto-Kakizaki rats [10]): significantly lower values | insulin concentration in the tail vein (Goto-Kakizaki rats [10]): significantly lower values | glucose concentration in the portal vein (Goto-Kakizaki rats [7]; [17]): significantly lower values | glucose concentration in the tail vein (Goto-Kakizaki rats [7]; [17]): significantly lower values
